In PMC3335078, “Length and Amino Acid Sequence of Peptides Substituted for the 5-HT3A Receptor M3M4 Loop May Affect Channel Expression and Desensitization” (PLoS ONE, 2012):

Tested on: 5-HT3A-QDA receptor
Test: Outside-out patch clamp of transfected HEK293 cells, effect of ondansetron on 5-HT activated channels
Type: cell-based
Conditions: 1 µM ondansetron with 5-HT, -60 mV, data not shown
Description: HEK293 cells (CRL-1573, ATCC, Manassas, VA) seeded at low density on poly-lysine-coated, 12 mm, thin glass coverslips were transfected 24 h later using a modified calcium-phosphate precipitation technique with 500 ng DNA per well. After 12 h, cells were rinsed with fresh medium (DMEM supplemented with 10% FBS+100 Units ml^-1 penicillin+100 μg ml^-1 streptomycin+4 mM L-glutamine) and incubated at 28°C [34]. Recordings were performed 24-48 h later. For patch clamp experiments the coverslips were mounted on an inverted Zeiss IM microscope equipped with epifluorescent illumination. Cells expressing the GFP reporter were selected for patch clamp recording. Pipettes pulled from borosilicate glass capillaries ([…]-10, Harvard Apparatus Inc., Holliston, MA) with a tip resistance of 8-13 MΩ when filled with intracellular solution. The recordings were done using outside-out and cell-attached patch configurations. Data was acquired with an EPC9 amplifier using Pulse software, v8.65 (HEKA Instruments Inc., Bellmore, NY). Data were sampled at 20 kHz and filtered at 10 kHz. All point histograms and fits with a sum of two or three Gaussian functions were performed using the Levenberg-Marquardt algorithm implemented in Qub software. […] Effects of ondansetron were determined in the outside-out recording configuration at a holding potential of -60 mV.

## Cc1nccn1CC1CCc2c(c3ccccc3n2C)C1=O (stereo not shown) [ondansetron, Ondansetron]
  Block of 5-HT activated single channels: no similar channels were observed
